Reference: ChEMBL document CHEMBL4627261, “A panoramic review of IL-6: Structure, pathophysiological roles and inhibitors” (Bioorg Med Chem, 2020)
Each block holds one compound with its values, some of them ahead of it.

Tests used:
RAW264.7 = assay: Effect on IL-6 mRNA expression in mouse RAW264.7 cells at 10 ug/ml relative to control; type: functional
Homo sapiens [1] = species: Homo sapiens; assay: Inhibition of MAPK (unknown origin) assessed as reduction in […] phosphorylation by cell based assay at 10 ug/ml relative to control
[2] = target: RAC-alpha serine/threonine-protein kinase (Homo sapiens) (UniProt P31749); assay: Inhibition of AKT (unknown origin) assessed as reduction in […] phosphorylation at 10 ug/ml by cell based assay relative to control
Sequence of RAC-alpha serine/threonine-protein kinase (Homo sapiens) (P31749 whole entry): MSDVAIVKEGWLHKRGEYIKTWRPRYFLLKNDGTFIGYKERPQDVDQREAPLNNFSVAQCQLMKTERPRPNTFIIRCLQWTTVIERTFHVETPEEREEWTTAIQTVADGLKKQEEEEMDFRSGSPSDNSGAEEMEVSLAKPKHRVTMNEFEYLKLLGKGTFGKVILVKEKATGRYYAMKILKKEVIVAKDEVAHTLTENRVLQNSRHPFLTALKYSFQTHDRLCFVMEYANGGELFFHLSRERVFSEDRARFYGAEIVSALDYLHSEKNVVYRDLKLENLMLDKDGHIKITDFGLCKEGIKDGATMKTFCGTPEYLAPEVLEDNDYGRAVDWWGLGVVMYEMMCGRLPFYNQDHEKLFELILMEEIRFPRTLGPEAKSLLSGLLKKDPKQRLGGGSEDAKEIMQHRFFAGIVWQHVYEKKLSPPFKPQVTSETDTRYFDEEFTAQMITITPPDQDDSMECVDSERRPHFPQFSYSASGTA

Homo sapiens [3] = species: Homo sapiens; assay: Inhibition of PI3K (unknown origin) assessed as reduction in PI3K phosphorylation by cell based assay at 10 ug/ml relative to control
WEHI265.1 [4] = assay: Antiinflammatory activity in LPS-induced mouse WEHI265.1 cells assessed as reduction in IL-6 level at 10 uM by ELISA relative to control; type: functional
WEHI265.1 [5] = assay: Antiinflammatory activity in LPS-induced mouse WEHI265.1 cells assessed as reduction in IL-6 level by ELISA; type: functional, cell-based
Mus musculus = assay: Antiinflammatory activity in LPS-induced mouse model assessed as reduction in IL-6 level in serum at 25 mg/kg, po relative to control; type: functional

Structure (SMILES): O=c1c2c(n3c(c1-c1ccccc1)SCC3)CCC2
- inhibition at 10 µM (WEHI265.1 [4]): 52%
- IC50 (WEHI265.1 [5]): 200 nM

Structure (SMILES): Oc1ccc(-c2cccc(-c3ccc(O)cc3)c2)cc1
- inhibition at 10 µM (WEHI265.1 [4]): 85%
- inhibition in vivo at 25 mg/kg (Mus musculus): 88%

Structure (SMILES): Nc1ccccc1-c1c2n(c3c(c1=O)CCC3)CCN2
- inhibition at 10 µM (WEHI265.1 [4]): 82%
- IC50 (WEHI265.1 [5]): 200 nM

Structure (SMILES): O=c1c2c(n3c(c1-c1ccccc1)NCC3)CCC2
- inhibition at 10 µM (WEHI265.1 [4]): 74%
- IC50 (WEHI265.1 [5]): 200 nM

Structure (SMILES): Oc1ccc(-c2cncc(-c3ccc(O)cc3)n2)cc1
- inhibition at 10 µM (WEHI265.1 [4]): 55%

Structure (SMILES): CC(=O)Nc1ccccc1-c1c2n(c3c(c1=O)CCC3)CCN2
- inhibition at 10 µM (WEHI265.1 [4]): 74%
- IC50 (WEHI265.1 [5]): 200 nM

Structure (SMILES): Oc1ccc(-c2cncc(-c3ccc(O)cc3)c2)cc1
- inhibition at 10 µM (WEHI265.1 [4]): 73%
- inhibition in vivo at 25 mg/kg (Mus musculus): 71%

Structure (SMILES): O=c1c2c(n3c(c1-c1ccccc1[N+](=O)[O-])NCC3)CCC2
- inhibition at 10 µM (WEHI265.1 [4]): 73%
- IC50 (WEHI265.1 [5]): 200 nM

The next lines start with results.

- inhibition [2]: 70%
Structure (SMILES): COC(=O)CCC(=O)Nc1ccccc1C(=O)OC
- Activity (RAW264.7): 33%
- inhibition (Homo sapiens [1]): 54%
- inhibition (Homo sapiens [3]): 51%

- IC50 (WEHI265.1 [5]): 200 nM
Structure (SMILES): COc1ccccc1-c1c2n(c3c(c1=O)CCC3)CCN2
- inhibition at 10 µM (WEHI265.1 [4]): 82%

- IC50 (WEHI265.1 [5]): 200 nM
Structure (SMILES): O=c1c2c(n3c(c1-c1ccccc1)OCC3)CCC2
- inhibition at 10 µM (WEHI265.1 [4]): 20%

- IC50 (WEHI265.1 [5]): 200 nM
Structure (SMILES): O=c1c2c(n3c(c1-c1ccccc1Cl)NCC3)CCC2
- inhibition at 10 µM (WEHI265.1 [4]): 90%

- IC50 (WEHI265.1 [5]): 200 nM
Structure (SMILES): CN1CCn2c3c(c(=O)c(-c4ccccc4)c21)CCC3
- inhibition at 10 µM (WEHI265.1 [4]): 43%
